Patent US20140315933A1, “CHEMICAL COMPOUNDS” (Pfizer Limited, priority 2013, published 2014)
Where a name gives a salt, the structure may show the parent alone.

These compounds were tested against T1, URAT-1 transporter (Homo sapiens, UniProt Q96S37) (assay: URAT-1 inhibitor activity: [14C]-uric acid uptake into CHO-URAT1(L)GFP#8 (CHO#8) cells, scintillation proximity).
T1 construct: expressed in transfected cells
T1 sequence (Q96S37 with tags, fused parts or gaps): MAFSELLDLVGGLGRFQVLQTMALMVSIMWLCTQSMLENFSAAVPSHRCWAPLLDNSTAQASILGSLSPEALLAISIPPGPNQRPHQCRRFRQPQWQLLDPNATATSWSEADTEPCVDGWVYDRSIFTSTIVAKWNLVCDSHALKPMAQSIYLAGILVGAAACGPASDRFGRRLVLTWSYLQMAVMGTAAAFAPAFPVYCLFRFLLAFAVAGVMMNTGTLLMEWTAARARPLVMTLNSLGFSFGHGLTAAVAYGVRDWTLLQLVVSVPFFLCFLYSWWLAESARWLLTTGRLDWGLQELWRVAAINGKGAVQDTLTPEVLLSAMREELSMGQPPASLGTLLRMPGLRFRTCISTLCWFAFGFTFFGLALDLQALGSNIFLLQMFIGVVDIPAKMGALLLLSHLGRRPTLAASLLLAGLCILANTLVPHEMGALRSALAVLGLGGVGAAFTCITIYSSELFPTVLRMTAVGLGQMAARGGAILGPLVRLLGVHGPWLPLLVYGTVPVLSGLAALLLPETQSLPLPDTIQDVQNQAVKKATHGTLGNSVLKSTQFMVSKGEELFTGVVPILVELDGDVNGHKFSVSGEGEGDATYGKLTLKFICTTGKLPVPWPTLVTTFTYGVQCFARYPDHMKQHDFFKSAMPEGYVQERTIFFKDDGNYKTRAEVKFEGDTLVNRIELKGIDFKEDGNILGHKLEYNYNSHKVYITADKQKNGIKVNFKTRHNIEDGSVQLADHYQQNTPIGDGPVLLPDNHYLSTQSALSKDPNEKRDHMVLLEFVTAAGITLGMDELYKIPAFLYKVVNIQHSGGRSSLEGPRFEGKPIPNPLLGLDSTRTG
Assay type: cell-based
Source text: The nucleotide sequence for the long isoform of URAT1 (NM_144585) was C-terminally fused to that of enhanced green fluorescent protein (eGFP) (hereinafter referred to as URAT1(L)GFP). The combined sequence was codon-optimised and custom synthesized. The synthesized sequence was generated in pDONR221 Gateway entry vector (Invitrogen Life Technologies) prior to cloning in pLenti6.3/V5 Gateway destination vector (Invitrogen Life Technologies).
Lentiviral particles were generated according to ViraPower HiPerform expression system procedure (Invitrogen Life Technologies) and used to transduce CHO cells. Blasticidin selection enabled the generation of a stable clonal pool of cells, confirmed by expression of GFP and V5 epitope. The clonal pools were sorted using fluorescence-activated cell sorting (FACS) on the basis of GFP expression with the gating set at the top 50% of expression into single cells which were subsequently expanded to generate clonal lines. […] This cell line was used for all screening activities and is referred to as CHO-URAT1(L)GFP#8 or CHO#8.
The potency of the compounds of formula (I) as inhibitors of the URAT-1 transporter was determined as follows.
CHO#8 cells were cultured in cell line maintenance flasks in medium consisting of Dulbecco's modified Eagle medium (DMEM) with high glucose and sodium pyruvate (4.5 g of glucose per litre, Invitrogen Life Technologies), supplemented with heat-inactivated foetal bovine serum (FBC, 10% v/v), 1×NEAA (non-essential amino acids) and blasticidin (10 μg/ml). Cultures were grown in 175 cm^2 tissue culture flasks in a humidified incubator at approximately 37° C. in approximately 95% air/5% CO2. Near confluent CHO#8 cell cultures were harvested by trypsinisation, re-suspended in culture medium and the process was repeated once or twice weekly to provide sufficient cells for use.
Assay ready flasks were generated by the same method, except the cells were not cultured in blasticidin.
Assay ready frozen cells were generated by freezing 40,000,000 cells in 1 ml of FBS (without blasticidin) containing 10% DMSO per vial. One vial was sufficient for 5 assay plates. Each vial was thawed rapidly to 37° C., washed and re-suspended in pre-warmed culture medium for seeding onto assay plates.
CHO#8 cells were seeded onto Cytostar™ 96-well plates at a density of […]. The cells were cultured for 1 day at approximately 37° C. in a humidified incubator containing approximately 5% CO2 in air. After approximately 24 hours culture, cells were used for uptake experiments.
On the day of assay, culture medium was removed from the wells and the cells were washed once with 50 μL of chloride-containing buffer (136.7 mM NaCl, 5.36 mM KCl, 0.952 mM CaCl2, 0.441 mM KH2PO4, 0.812 mM MgSO4, 5.6 mM D-glucose, 0.383 mM Na2HPO4.2H2O, 10 mM HEPES, pH 7.4 with NaOH). The cells were pre-incubated with another 50 μL of chloride-containing buffer for one hour at approximately 37° C. in a humidified incubator containing approximately 5% CO2 in air.
Assay compound plates were prepared by diluting the compounds of formula (I) with chloride-free buffer (125 mM Na-gluconate, 4.8 mM K-gluconate, 1.3 mM Ca-gluconate, 1.2 mM KH2PO4, 1.2 mM MgSO4, 5.6 mM D-glucose, 25 mM HEPES, pH 7.4 with NaOH) in 100% DMSO to a final concentration of 1% DMSO. [^14C]-Uric Uric acid working stock was made by addition of radiolabeled compound to a final concentration of 120 nM in chloride-free buffer. In all wells, the final assay concentration of solvent (DMSO) was 0.25%; the final assay concentration of [^14C]-uric acid was 30 nM in chloride-free buffer and the final compound of formula (I) concentrations ranged from 0 to 10 μM.
After pre-incubation, cells were washed with 50 μL of chloride-free buffer and another 50 μL of chloride-free buffer was added. […]
N#Cc1cc(S(=O)(=O)Nc2ncc(F)s2)ccc1Oc1c(F)ccc(F)c1F [Example 115, 3-cyano-N-(5-fluoro-1,3-thiazol-2-yl)-4-(2,3,6-trifluorophenoxy)benzenesulfonamide] showed an IC50 of 1.63 µM. In the case of CC(C)c1cccc(Oc2ccc(S(=O)(=O)Nc3ncns3)cc2Cl)c1 [Example 63, 3-chloro-4-[3-(propan-2-yl)phenoxy]-N-(1,2,4-thiadiazol-5-yl)benzenesulfonamide diethylamine salt], the IC50 is reported as 1.44 µM. Work on CC(C)Oc1ccc(Oc2ccc(S(=O)(=O)Nc3nccs3)cc2C#N)cn1 [Example 192, 3-cyano-4-{[6-(propan-2-yloxy)pyridin-3-yl]oxy}-N-(1,3-thiazol-2-yl)benzenesulfonamide] yielded an IC50 greater than 10 µM. N#Cc1cc(S(=O)(=O)Nc2nccs2)ccc1Oc1ccc(OC(F)(F)F)cc1Br [compound 164] gave an IC50 greater than 10 µM. For CCc1nc(C)ccc1Oc1ccc(S(=O)(=O)Nc2ncns2)cc1C#N [compound 276, trifluoroacetic acid salt], the IC50 was greater than 10 µM. In the case of Cc1cncc(Oc2ccc(S(=O)(=O)Nc3ncns3)cc2C#N)c1 [compound 252, trifluoroacetic acid salt], the IC50 is reported as 1.11 µM. N#Cc1ccc(Oc2ccc(S(=O)(=O)Nc3cscn3)cc2C#N)cc1Cl [compound 220, 4-(3-chloro-4-cyanophenoxy)-3-cyano-N-(1,3-thiazol-4-yl)benzenesulfonamide] gave an IC50 of 0.11 µM. In the case of Cc1c(Oc2ccc(S(=O)(=O)Nc3ncns3)cc2C#N)ccc(F)c1F [compound 288], the IC50 is reported as 0.431 µM. N#Cc1cc(Oc2ccc(S(=O)(=O)Nc3cscn3)c(F)c2)ccc1F [compound 233] showed an IC50 greater than 10 µM. For N#Cc1cc(S(=O)(=O)Nc2ncc(F)s2)ccc1Oc1cc(C(F)(F)F)cc(C(F)(F)F)c1 [Example 138, 4-[3,5-bis(trifluoromethyl)phenoxy]-3-cyano-N-(5-fluoro-1,3-thiazol-2-yl)benzenesulfonamide], the IC50 was 3.47 µM. In the case of COc1cc(F)ccc1Oc1ccc(S(=O)(=O)Nc2ncns2)cc1C#N [compound 286], the IC50 is reported as 1.01 µM. N#Cc1cc(S(=O)(=O)Nc2nccs2)ccc1Oc1ccc(Cl)nc1 [compound 172] showed an IC50 of 0.917 µM. N#Cc1cc(S(=O)(=O)Nc2ncc(F)s2)ccc1Oc1cccc(F)c1F [Example 114, 3-cyano-4-(2,3-difluorophenoxy)-N-(5-fluoro-1,3-thiazol-2-yl)benzenesulfonamide] was tested, and the IC50 was 4.41 µM. Compound N#Cc1cc(S(=O)(=O)Nc2ncc(F)s2)ccc1Oc1ccc(Cl)cc1 [Example 98, 4-(4-chlorophenoxy)-3-cyano-N-(5-fluoro-1,3-thiazol-2-yl)benzenesulfonamide] has an IC50 greater than 1.69 µM. Compound CC(C)c1cccc(Oc2ccc(S(=O)(=O)Nc3nccs3)cc2F)c1 [Example 66, 3-fluoro-4-[3-(propan-2-yl)phenoxy]-N-(1,3-thiazol-2-yl)benzenesulfonamide] has an IC50 of 5.81 µM. In the case of COc1cc(Cl)cc(Oc2ccc(S(=O)(=O)Nc3ncns3)cc2C#N)c1 [compound 269], the IC50 is reported as 0.278 µM. For N#Cc1cc(S(=O)(=O)Nc2nncs2)ccc1Oc1cnc(OC(F)F)c(Cl)c1 [Example 334], the IC50 was 2.03 µM. CSc1ncccc1Oc1ccc(S(=O)(=O)Nc2ncns2)cc1C#N [compound 254, trifluoroacetic acid salt] was tested, and the IC50 was 0.878 µM. O=S(=O)(Nc1cscn1)c1cc(Cl)c(Oc2cc(Cl)ccc2OC(F)F)cc1F [Example 158, 5-chloro-4-[5-chloro-2-(difluoromethoxy)phenoxy]-2-fluoro-N-(1,3-thiazol-4-yl)benzenesulfonamide] showed an IC50 of 3.21 µM. CCOc1cc(Cl)ccc1Oc1ccc(S(=O)(=O)Nc2ncns2)cc1C#N [Example 12, 4-(4-chloro-2-ethoxyphenoxy)-3-cyano-N-(1,2,4-thiadiazol-5-yl)benzenesulfonamide] was tested, and the IC50 was 0.354 µM. In the case of N#Cc1cc(S(=O)(=O)Nc2nccs2)ccc1Oc1ccc(Cl)cc1OC(F)(F)F [compound 162], the IC50 is reported as 0.565 µM. CC(C)Nc1ccc(Oc2ccc(S(=O)(=O)Nc3nccs3)cc2C#N)cn1 [Example 188, 3-cyano-4-{[6-(propan-2-ylamino)pyridin-3-yl]oxy}-N-(1,3-thiazol-2-yl)benzenesulfonamide] was tested, and the IC50 was 0.688 µM. N#Cc1cc(S(=O)(=O)Nc2ncc(F)s2)ccc1Oc1ccc(F)c(C(F)(F)F)c1 [Example 143, 3-cyano-N-(5-fluoro-1,3-thiazol-2-yl)-4-[4-fluoro-3-(trifluoromethyl)phenoxy]benzenesulfonamide] gave an IC50 of 0.566 µM. For N#Cc1ccc(Oc2ccc(S(=O)(=O)Nc3ncns3)cc2C#N)c(OC(F)F)c1 [Example 23, 3-cyano-4-[4-cyano-2-(difluoromethoxy)phenoxy]-N-(1,2,4-thiadiazol-5-yl)benzenesulfonamide], the IC50 was greater than 10 µM. For CCc1ncccc1Oc1cc(F)c(S(=O)(=O)Nc2nncs2)cc1Cl [compound 307], the IC50 was greater than 7.19 µM. N#Cc1cc(S(=O)(=O)Nc2ncc(F)s2)ccc1Oc1cc(C(F)(F)F)ccc1Cl [Example 136, 4-[2-chloro-5-(trifluoromethyl)phenoxy]-3-cyano-N-(5-fluoro-1,3-thiazol-2-yl)benzenesulfonamide] was tested, and the IC50 was 0.464 µM. In the case of N#Cc1cc(Oc2ccc(S(=O)(=O)Nc3ncns3)cc2C#N)ccc1F [compound 206], the IC50 is reported as greater than 3.32 µM. N#Cc1cc(S(=O)(=O)Nc2nccs2)ccc1Oc1ccccc1Cl [compound 181] gave an IC50 of 1.22 µM. O=S(=O)(Nc1ncns1)c1cc(Cl)c(Oc2ccc(Cl)cc2OC(F)(F)F)cc1F [Example 151, 5-chloro-4-[4-chloro-2-(trifluoromethoxy)phenoxy]-2-fluoro-N-(1,2,4-thiadiazol-5-yl)benzenesulfonamide] was tested, and the IC50 was 0.508 µM. N#Cc1cc(F)ccc1Oc1ccc(S(=O)(=O)Nc2ncns2)cc1C#N [Example 47, 3-cyano-4-(2-cyano-4-fluorophenoxy)-N-(1,2,4-thiadiazol-5-yl)benzenesulfonamide] was tested, and the IC50 was 5.39 µM. Work on N#Cc1cc(S(=O)(=O)Nc2nccs2)ccc1Oc1ccccc1Br [compound 182] yielded an IC50 of 1.33 µM. Work on O=S(=O)(Nc1cscn1)c1cc(Cl)c(Oc2cc(C(F)(F)F)ccc2I)cc1F [Example 160, 5-chloro-2-fluoro-4-[2-iodo-5-(trifluoromethyl)phenoxy]-N-(1,3-thiazol-4-yl)benzene-sulfonamide] yielded an IC50 of 0.347 µM. COc1cc(C#N)ccc1Oc1cc(F)c(S(=O)(=O)Nc2nncs2)cc1Cl [compound 296] was tested, and the IC50 was greater than 10 µM. With N#Cc1cc(S(=O)(=O)Nc2nccs2)ccc1Oc1cccc(I)c1 [compound 167] the IC50 was 0.166 µM. Compound N#Cc1cc(S(=O)(=O)Nc2ncc(F)s2)ccc1Oc1cccc(Cl)c1 [Example 110, 4-(3-chlorophenoxy)-3-cyano-N-(5-fluoro-1,3-thiazol-2-yl)benzenesulfonamide] has an IC50 greater than 7.54 µM. CC(C)Oc1ccc(F)cc1Oc1ccc(S(=O)(=O)Nc2ncns2)cc1C#N [compound 262] gave an IC50 of 3.58 µM. For COc1cccc(Oc2ccc(S(=O)(=O)Nc3ncc(F)s3)cc2C#N)c1 [Example 109, 3-cyano-N-(5-fluoro-1,3-thiazol-2-yl)-4-(3-methoxyphenoxy)benzenesulfonamide], the IC50 was 0.552 µM. Cc1cccc(Oc2ccc(S(=O)(=O)Nc3ncns3)cc2C#N)c1 [compound 260] showed an IC50 of 1.96 µM. For COc1ccc(F)c(Oc2cc(F)c(S(=O)(=O)Nc3nncs3)cc2Cl)c1 [compound 315], the IC50 was 2.19 µM. Cc1cncc(Oc2cc(F)c(S(=O)(=O)Nc3nncs3)cc2Cl)c1 [compound 311] gave an IC50 of 1.1 µM.
